# Experimental data: US20090239926A1, “METHODS FOR THE TREATMENT OF PSORIASIS OR PSORIATIC ARTHRITIS USING CYCLOPROPYL-N-CARBOXAMIDE” (priority 2008, published 2009)
# Where “and” joins values, the source holds several entries; their conditions need not be identical. Identical values can stand only once.
# Columns and labels:
# [1] = tested on: PDE4 enzyme purified from U937 human monocytic cells; experiment: PDE4 inhibition; assay type: biochemical
# Description: PDE4 enzyme was purified from U937 human monocytic cells by gel filtration chromatography (Muller et al. 1998, Bioorg. & Med. Chem. Lett. 1998. 8 (19):2669-74). Phosphodiesterase reactions were carried out in 50 MM Tris HCl pH 7.5, 5 mM MgCl2, 1 μM cAMP, 10 nM [^3H]-cAMP for 30 min at 30, terminated by boiling, treated with 1 mg/ml snake venom, and separated using AG-lXS ion exchange resin (BioRad).
# The specificity of Compound A for PDE4 was assessed by testing at a single concentration (10 μM) against bovine PDE1, human PDE2, PDE3 and PDE5 from human platelets, and PDE6 from bovine retinal rod outer segments.
# [2] = tested on: CD18 expression on neutrophils; experiment: fMLF-induced neutrophil CD18 expression; assay type: cell-based; settings: Homo sapiens, 0.5 h, 30 nM fMLF, 30 minutes, flow cytometry
# Description: CD18/CD11b (Mac-1) expression on neutrophils was measured with the following modifications. (Derian, C. K., et al., J Immunol, 1995. 154(1): 308-17). Neutrophils were isolated as described above, then resuspended in complete medium at 1×10^6 cells/ml, pretreated with Compound A at 10, 1, 0.1, 0.01, and 0 μM in duplicate at a final DMSO concentration of 0.1% for 10 minutes at 37° C. 5% CO2. Cells were then stimulated with 30 nM fMLF for 30 minutes and then chilled to 4° C. Cells were treated with rabbit IgG (Jackson ImmunoResearch Labs, West Grove, Pa., USA) (10 μg/1×10^6 cells) to block Fc receptors, stained with CD18-FITC and CD11b-PE (Becton Dickinson), and analyzed by flow cytometry on a FACSCalibur. CD18/CD11b expression (mean fluorescence) in the absence of stimulation was subtracted from all samples to obtain inhibition curves and calculate IC50.
compound,measurement,setting,value
"CCOc1cc([C@@H](CS(C)(=O)=O)N2Cc3cccc(NC(=O)C4CC4)c3C2=O)ccc1OC [Compound A, cyclopropyl-N-{2-[(1S)-1-(3-ethoxy-4-methoxyphenyl)-2-(methylsulfonyl)ethyl]-3-oxoisoindoline-4-yl}carboxamide]",IC50,[1]; 1 μM cAMP,100 nM
same,PDE4 IC50 (from U937 cells),[1]; 1 μM cAMP,0.05 µg/mL
same,PDE4 % inhibition,[1]; at 10 μM,95%
same,IC50,[2],23 nM and 0.011 µg/mL
